N#Cc1cccc([N+](=O)[O-])c1C#N
solubility (mole fraction)
Details | 278.15 K | 283.15 K | 288.15 K | 293.15 K | 298.15 K | 303.15 K | 308.15 K | 313.15 K | 318.15 K | 323.15 K
in NMP | 0.0839 | 0.0936 | 0.104 | 0.115 | 0.128 | 0.141 | 0.155 | 0.17 | 0.186 | 0.203
in acetone | 0.0204 | 0.0242 | 0.0286 | 0.0338 | 0.0399 | 0.0472 | 0.0558 | 0.0661 | 0.0783 | 0.0929
in ethanol | 0.000924 | 0.00111 | 0.00134 | 0.0016 | 0.00194 | 0.00232 | 0.00273 | 0.00325 | 0.00382 | 0.00448
in ethyl acetate | 0.0178 | 0.0208 | 0.0242 | 0.0281 | 0.0324 | 0.0372 | 0.0426 | 0.0487 | 0.0555 | 0.063
in ethylene glycol | 0.0131 | 0.0158 | 0.019 | 0.0226 | 0.0268 | 0.0317 | 0.0373 | 0.0438 | 0.0512 | 0.0596
in isobutanol | 0.000381 | 0.000424 | 0.000477 | 0.000552 | 0.000643 | 0.000765 | 0.000921 | 0.00111 | 0.00135 | 0.00169
in isopropanol | 0.000561 | 0.000681 | 0.000837 | 0.00103 | 0.00125 | 0.00151 | 0.00179 | 0.00216 | 0.00257 | 0.00305
in methanol | 0.00203 | 0.0024 | 0.00283 | 0.00332 | 0.00388 | 0.00452 | 0.00523 | 0.00597 | 0.00695 | 0.00796
in n-butanol | 0.000411 | 0.000478 | 0.000569 | 0.000686 | 0.000836 | 0.001 | 0.0012 | 0.00143 | 0.00171 | 0.00207
in n-propanol | 0.000735 | 0.000899 | 0.00109 | 0.00132 | 0.00159 | 0.00189 | 0.00226 | 0.00268 | 0.00317 | 0.00373
in toluene | 0.000946 | 0.00116 | 0.00142 | 0.00173 | 0.0021 | 0.00254 | 0.00305 | 0.00367 | 0.00437 | 0.00521
in water | 5.32e-05 | 6.38e-05 | 7.98e-05 | 9.78e-05 | 0.00012 | 0.000146 | 0.000176 | 0.00021 | 0.00025 | 0.000298

From BigSolDB 2.1
